These compounds were tested against human TPH1 (Homo sapiens (Human), UniProt P17752) (assay: Biochemical in vitro assay using fluorescence readout (TPH1 inhibition)). Conditions: full length human TPH1, 40 μM L-tryptophan, 15° C., 60 minutes, fluorescence at 540 nm; mean if determined several times.
Sequence of human TPH1 (P17752 whole entry): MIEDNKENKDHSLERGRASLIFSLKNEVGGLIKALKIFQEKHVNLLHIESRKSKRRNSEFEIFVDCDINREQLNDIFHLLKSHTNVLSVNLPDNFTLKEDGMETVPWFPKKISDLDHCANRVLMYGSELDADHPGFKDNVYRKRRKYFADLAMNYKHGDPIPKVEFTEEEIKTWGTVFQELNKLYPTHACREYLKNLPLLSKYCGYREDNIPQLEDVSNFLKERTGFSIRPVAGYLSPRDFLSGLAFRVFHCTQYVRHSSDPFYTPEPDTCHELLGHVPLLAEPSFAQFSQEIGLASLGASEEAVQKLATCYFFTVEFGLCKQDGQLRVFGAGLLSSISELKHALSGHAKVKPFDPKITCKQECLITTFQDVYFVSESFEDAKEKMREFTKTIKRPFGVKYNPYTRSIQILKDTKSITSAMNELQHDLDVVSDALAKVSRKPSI
`Cc1nn2c3c(nc2s1)CCN(C(=O)COc1ccc(NS(=O)(=O)C2CC2)cc1Cl)C3c1ccc(Cl)cc1F` (stereo not shown) [Example 1.4.30, N-(3-Chloro-4-(2-(5-(4-chloro-2-fluorophenyl)-2-methyl-7,8-dihydro-[1,3,4]thiadiazolo[2′,3′:2,3]imidazo[4,5-c]pyridin-6(5H)-yl)-2-oxoethoxy)phenyl)cyclo-propanesulfonamide] was tested, and the IC50 was 10 nM.
With `CNC(=O)c1csc(C2c3c(nc4sc(C)nn34)CCN2C(=O)COc2ccc(C(F)(F)F)cc2Cl)n1` (stereo not shown) [Example 1.44.1, 2-(6-(2-(2-Chloro-4-(trifluoromethyl)phenoxy)acetyl)-2-methyl-5,6,7,8-tetrahydro-[1,3,4]thiadiazolo[2′,3′:2,3]imidazo[4,5-c]pyridin-5-yl)-N-methylthiazole-4-carboxamide] the IC50 was 311 nM.
`Cc1nn2c3c(nc2s1)CCN(C(=O)COc1ccc(N2C(C)CCC2C)nc1Cl)C3c1ccc(Cl)cc1F` (stereo not shown) [Example 1.4.15, 1-(5-(4-chloro-2-fluorophenyl)-2-methyl-7,8-dihydro-[1,3,4]thiadiazolo[2′,3′:2,3]imidazo[4,5-c]pyridin-6(5H)-yl)-2-((2-chloro-6-(2,5-dimethylpyrrolidin-1-yl)pyridin-3-yl)oxy)ethanone] gave an IC50 of 6 nM.

Same assay, conditions: human TPH1, fluorescence readout
In the case of `CS(=O)(=O)Nc1ccc(OCC(=O)N2CCc3nc4sc(C(F)(F)F)nn4c3C2c2ccc(Cl)cc2F)c(Cl)n1` (stereo not shown) [Example 5.1.1, N-(6-chloro-5-(2-(5-(4-chloro-2-fluorophenyl)-2-(trifluoromethyl)-7,8-dihydro-[1,3,4]thiadiazolo-[2′,3′:2,3]imidazo[4,5-c]pyridin-6(5H)-yl)-2-oxoethoxy)pyridin-2-yl)methanesulfonamide], the IC50 is reported as 50 nM.
`Cc1nn2c3c(nc2s1)CCN(C(=O)COc1ccc(CN2CCOCC2)nc1Cl)C3c1cccnc1F` (stereo not shown) [Example 1.2.1, 2-((2-chloro-6-(morpholinomethyl)pyridin-3-yl)oxy)-1-(5-(2-fluoropyridin-3-yl)-2-methyl-7,8-dihydro-[1,3,4]thiadiazolo[2′,3′:2,3]imidazo[4,5-c]pyridine-6(5H)yl) ethanone] was tested, and the IC50 was 208 nM.
In the case of `CCOC(=O)c1ncc(C2c3c(nc4sc(C)nn34)CCN2C(=O)COc2ccc(C(F)(F)F)cc2Cl)s1` (stereo not shown) [Example 1.30.2, Ethyl 5-(6-(2-(2-chloro-4-(trifluoromethyl)phenoxy)acetyl)-2-methyl-5,6,7,8-tetrahydro-[1,3,4]thiadiazolo [2′,3′:2,3]imidazo[4,5-c]pyridin-5-yl)thiazole-2-carboxylate], the IC50 is reported as 442 nM.
`Cc1nn2c3c(nc2s1)CCN(C(=O)COc1ccc(N2CCOCC2)nc1Cl)C3c1cncs1` (stereo not shown) [Example 1.39.3, 2-((2-chloro-6-morpholinopyridin-3-yl)oxy)-1-(2-methyl-5-(thiazol-5-yl)-7,8-dihydro-[1,3,4]thiadiazolo[2′,3′:2,3]imidazo[4,5-c]pyridin-6(5H)-yl)ethanone] showed an IC50 of 5 nM.
In the case of `Cc1nn2c3c(nc2s1)CCN(C(=O)COc1ccc(C(N)=O)nc1Cl)C3c1ncc(Cl)cc1F` (stereo not shown) [Example 1.33.4, 6-chloro-5-(2-(5-(5-chloro-3-fluoropyridin-2-yl)-2-methyl-7,8-dihydro-[1,3,4]thiadiazolo[2′,3′:2,3]imidazo[4,5-c]pyridin-6(5H)-yl)-2-oxoethoxy)picolinamide], the IC50 is reported as 7 nM.
Work on `CNC(=O)c1ccc(OCC(=O)N2CCc3nc4sc(C)nn4c3C2c2ncc(C)cc2F)c(Cl)n1` (stereo not shown) [Example 1.31.6, 6-chloro-5-(2-(5-(3-fluoro-5-methylpyridin-2-yl)-2-methyl-7,8-dihydro-[1,3,4]thiadiazolo[2′,3′:2,3]imidazo[4,5-c]pyridin-6(5H)-yl)-2-oxoethoxy)-N-methylpicolinamide] yielded an IC50 of 7 nM.
In the case of `O=C(COc1cccc(C(F)(F)F)c1Cl)N1CCc2nc3sccn3c2C1c1nc2ccccc2s1` (stereo not shown) [Example 6.12.5, 1-(5-(benzo[d]thiazol-2-yl)-7,8-dihydrothiazolo-[2′,3′:2,3]imidazo[4,5-c]pyridin-6(5H)-yl)-2-(2-chloro-3-(trifluoromethyl)phenoxy)ethanone], the IC50 is reported as 28 nM.
